Measured values from PMC11836371, “Virtual fragment screening for DNA repair inhibitors in vast chemical space” (Nature Communications, 2025).
≈ marks a conversion by molar mass, not a printed value. Where “and” joins values, the source holds several entries; their conditions need not be identical. Equal entries are not always repeated. Where two headings read alike, the source gives them in different places.

Experiments:
[1] = Metabolic stability in human liver microsomes; type: in vitro ADME; conditions: pH 7.4, intrinsic clearance
Protocol: Human liver microsomes were purchased from BioIVT. Metabolic stability was determined in 0.5 mg/mL human liver microsomes at a compound concentration of 1 µM in 100 mM KPO4 buffer pH 7.4 in a total incubation volume of 500 µL. The reaction was initiated by the addition of 1 mM NADPH. At various incubation times, i.e., at 0, 5, 10, 20, 40, and 60 min, a sample was withdrawn from the incubation and the reaction was terminated by the addition of cold acetonitrile with warfarin as an internal standard. The amount of parent compound remaining was analyzed by liquid chromatography coupled to triple quadrupole mass spectrometry (LC-MS/MS).

[2] = tested on: NF-κB activation in HEK293T pGF NF-κB cells; experiment: TNF-α induced NF-κB activation assay; type: cell-based; conditions: for EC50: Homo sapiens, HEK-293T
Protocol: The inhibition of TNF-α induced NF-κB activation was measured in HEK293T cells transfected with the pGreenfire NF-κB plasmid. This is a plasmid that has NF-κB response elements (TRE) coupled to GFP and luciferase expression. When the NF-κB is activated by TNF-α, it binds to the TRE and induces GFP expression, and the fluorescence can be measured in a plate reader. The cells were authenticated with STR profiling, frozen down and these stocks were used in experiments. The HEK293T pGF NF-κB cells were kept in DMEM with 5% FBS and 1% P/S but, when seeded for the assay the medium was changed to DMEM FluoroBrite with 1% dialyzed FBS. All cell culture reagents were purchased from Thermo Fisher Scientific. Compounds were nano-dispensed (Echo acoustic dispenser) in 96-well, black/clear, assay plates (Corning #3904), duplicate plates, in 8-points dose-response curves, 1:2 dilutions, with DMSO compensation (0.3% DMSO). Cells were seeded at 30000 cells/well in medium containing 10 ng/mL of TNF-α (Sigma-Aldrich), except negative control wells which only contained cells in medium. Cells were cultured for 24 hours in a humidified incubator at 37 °C with 5% CO2 after which the GFP fluorescence was measured in a Sense plate reader (Hidex) with ex485/em535. The RFU data from the duplicate plates were combined to calculate % inhibition of NF-κB activation and IC50-values were calculated using XLfit (IDBS). In parallel with the NF-κB assay, a CellTiterGlo (Promega) cell viability assay was run to exclude compounds affecting cell viability. Compounds were nano-dispensed (Echo acoustic dispenser) in assay plates in 11-points dose-response curves, 1:3 dilutions, without DMSO compensation, with duplicates on the same plate. Cells were seeded at 7500 cells/well in 25 µL medium (DMEM FluoroBrite with 1% dialyzed FBS) containing 10 ng/mL TNF-α and cultured for 24 hours, with column 24 containing only culture medium. After equilibration to room temperature, the CellTiterGlo reagents were mixed and 25 µL/well were added to the cell plate. After 2 min mixing of the plate on an orbital shaker, the plate was incubated for 10 min at room temperature followed by luminescence reading in Sense. The cell viability was calculated compared to untreated control wells and the EC50 values were determined in XLfit (IDBS). […]

[3] = target: human OGG1 enzyme (Homo sapiens, UniProt O15527); experiment: OGG1 glycosylase activity assay (enzyme inhibition, APE1-coupled fluorescence); type: biochemical; conditions: for increase of inhibitory potency compared to fragment 1: ratio of IC50 values
Sequence of human OGG1 enzyme (O15527 whole entry, the tested form may be a part): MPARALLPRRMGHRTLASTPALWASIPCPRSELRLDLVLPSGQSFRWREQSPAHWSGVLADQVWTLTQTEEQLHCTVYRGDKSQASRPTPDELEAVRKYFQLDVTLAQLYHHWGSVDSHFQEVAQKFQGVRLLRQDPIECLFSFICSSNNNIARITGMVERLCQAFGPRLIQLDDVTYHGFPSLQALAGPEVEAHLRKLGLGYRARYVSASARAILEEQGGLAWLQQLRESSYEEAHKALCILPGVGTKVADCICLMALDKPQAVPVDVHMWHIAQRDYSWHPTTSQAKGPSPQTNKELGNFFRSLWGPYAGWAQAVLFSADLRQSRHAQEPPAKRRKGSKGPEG
Protocol: “8” signifies 8-oxoA and “FAM” and “Dab” signify fluorescein and dabcyl (TriLink Biotech). Briefly, compounds dissolved in DMSO were dispensed using an Echo 550 (Labcyte), followed by transfer of enzyme and substrate solutions manually with a 16-channel pipette or with a Multidrop (Thermo Scientific). The plates were centrifuged, sealed and incubated at room temperature overnight (15 h) and read the following morning in an Hidex Sense plate reader (Hidex Oy) using a 485-nm filter with a bandwidth of 10 nm for excitation and a 535-nm filter with a bandwidth of 20 nm for emission.

[4] = tested on: A549 cells; experiment: Cancer cell viability assay (resazurin), A549; type: cell-based; conditions: two independent experiments; for percentage cell viability: A549, 100 μM, 100 µM; for viability at 100 µM: Homo sapiens, A549, A549, 100 μM, read-out: percentage cell viability
Protocol: (§1) Three different cancer cell lines A2780 (ovarian cancer, ECACC 93112519), A549 (lung cancer, ATCC 60150896) and HCT116 (colon cancer, ATCC CCL-247), and one immortalized fibroblast cell line (BJhTERT) as control, were seeded in black/clear 384-well plates (Corning #3764), 50 µL/well, containing 11 concentrations, nano-dispensed, dose-response curves of the test compounds. A2780, HCT116, and HEK293T cell lines were authenticated with STR profiling, frozen down, and these stocks were used in experiments. The A2780 cells were cultured in RPMI 1640, the A549 and BJhTERT cells in DMEM, and the HCT116 cells in McCoys 5 A medium. All media were supplemented with 10% FBS and 1% P/S. All cell culture media, additives, and reagents were purchased from Thermo Fisher Scientific. The cell plates were incubated 72 hours in a humidified incubator at 37 °C with 5% CO2, after which resazurin (Sigma-Aldrich), 10 µL/well, was added to a final concentration of 10 µg/mL. The plates were incubated for 6 hours with resazurin followed by fluorescence readings in a Sense plate reader (Hidex), resorufin protocol (ex 544 nm/em 595 nm). The cell viability was calculated compared to untreated control wells and the EC50 values were determined in XLfit (IDBS).

[5] = Caco-2 cell permeability assay; type: in vitro ADME; conditions: human, Caco-2, pH 7.4; for Papp A→B at 60 min, 10 µM: read-out: Papp AB (10–6 cm/s); for Papp B→A at 60 min, 10 µM: read-out: Papp BA (10–6 cm/s)
Protocol: Prior to the experiment a drug solution of 10 µM was prepared and warmed to 37 °C. The Caco-2 filters were washed with pre-warmed HBSS prior to the experiment, and thereafter the experiment was started by applying the donor solution on the apical or basolateral side. The transport experiments were carried out at pH 7.4 in both the apical and basolateral chamber. The experiments were performed at 37 °C and with a stirring rate of 500 rpm. The receiver compartment was sampled at 15, 30, and 60 min, and at 60 min also a final sample from the donor chamber was taken to calculate the mass balance of the compound. The samples (100 µL) were transferred to a 96-well plate containing 100 µL methanol and Warfarin as IS and was sealed until analyzed by liquid chromatography coupled to triple quadrupole mass spectrometry (LC-MS/MS).

[6] = tested on: HCT116 cells; experiment: Cancer cell viability assay (resazurin), HCT116; type: cell-based; conditions: two independent experiments; for percentage cell viability: HCT116, 100 μM, 100 µM; for viability at 100 µM: Homo sapiens, HCT-116, HCT116, 100 μM, read-out: percentage cell viability
Protocol: as §1

[7] = Thermodynamic solubility; type: physicochemical; conditions: for solubility thermodynamic: thermodynamic from solid
[8] = NFκB activation assay, ± SD, read-out: pEC50 (converted)
[9] = Figure 3B source data, three independent experiments, read-out: IC50 OGG1
[10] = Concentration 2.34e-7, single replicates
[11] = Concentration 4.69e-7, single replicates
[12] = Concentration 9.38e-7, single replicates
[13] = Concentration 1.88e-6, single replicates
[14] = Concentration 3.75e-6, single replicates
[15] = Concentration 7.5e-6, single replicates
[16] = Concentration 1.5e-5, single replicates
[17] = Concentration 3e-5, single replicates

Compound	microsomal CLint at 1 µM [1]	EC50 [2, 8]	OGG1 inhibition, dose-response (Figure2C) ([3]; Concentration (M) 1.93e-7)	OGG1 inhibition, dose-response (Figure2C) ([3]; Concentration (M) 3.87e-7)	OGG1 inhibition, dose-response (Figure2C) ([3]; Concentration (M) 7.73e-7)	OGG1 inhibition, dose-response (Figure2C) ([3]; Concentration (M) 1.55e-6)	OGG1 inhibition, dose-response (Figure2C) ([3]; Concentration (M) 3.09e-6)	OGG1 inhibition, dose-response (Figure2C) ([3]; Concentration (M) 6.19e-6)	OGG1 inhibition, dose-response (Figure2C) ([3]; Concentration (M) 1.24e-5)	OGG1 inhibition, dose-response (Figure2C) ([3]; Concentration (M) 2.48e-5)	OGG1 inhibition, dose-response (Figure2C) ([3]; Concentration (M) 4.95e-5)	OGG1 inhibition, dose-response (Figure2C) ([3]; Concentration (M) 9.9e-5)	IC50 [3, 9]	increase of inhibitory potency compared to fragment 1 [3]	IC50 ([3]; read-out: IC50)	percentage cell viability [4]	viability at 100 µM [4]	Papp A→B at 60 min, 10 µM [5]	Papp B→A at 60 min, 10 µM [5]	percentage cell viability [6]	further results
Cc1nc(-c2ccc(CC(=O)Nc3noc4c3CCCC4)cc2)c(C)[nH]1 [compound 17]	23.9 µL/min/mg	19100 nM	17.95 and 20.93 and 16.93 and 26.66	29.14 and 34.59 and 30.82 and 38.2	44.06 and 48.74 and 48.24 and 52.23	58.26 and 62.87 and 66.96 and 67.73	72.68 and 77.92 and 76.19 and 83.17	85.12 and 84.21 and 85.13 and 86.27	90.55 and 92.85 and 89.92 and 91.47	92.75 and 97.64 and 93.54 and 94.76	96.49 and 97.45 and 94.85 and 97.57	96.97 and 96.91 and 94.08 and 97.24	505 nM and 495 nM and 518 nM	> 165 fold	600 nM	56.76%	52.6%	19.8 ×10⁻⁶ cm/s	134 ×10⁻⁶ cm/s	23.58%	efflux ratio at 60 min, 10 µM [5]: 6.7; viability at 100 µM [6]: 11.8%; fold higher solubility than TH5487 [7]: > 600 fold and > 667 fold; solubility thermodynamic [7]: 667 µM (≈ 234 µg/mL)
Cc1nc(-c2cc(F)c(CC(=O)Nc3noc4c3CCCC4)c(F)c2)c(C)[nH]1 [compound 23]	39.7 µL/min/mg	6310 nM	9.69 and 17.93 and 10.41 and 18.5	29.24 and 27.63 and 28.59 and 28.11	53.6 and 49.32 and 48.44 and 47.84	59.42 and 67.01 and 59.08 and 66.62	78.97 and 77.03 and 76.1 and 78.52	89 and 85.95 and 85.06 and 85.7	91.41 and 94.39 and 90.13 and 92.43	94.22 and 97.46 and 92.46 and 96.53	94.91 and 98.52 and 101.44 and 105.23	93.34 and 96.5 and 102.87 and 104.38	442 nM and 646 nM and 620 nM	> 165 fold	600 nM	73.95%	60.6%	6.13 ×10⁻⁶ cm/s	94.2 ×10⁻⁶ cm/s	61.96% and 97.34%	% inhibition of NF-κB activation (Figure3F) [2, 10]: 12.9% and 24.6% and 2.1%; % inhibition of NF-κB activation (Figure3F) [2, 11]: 11.9% and 16.7% and -7.9%; % inhibition of NF-κB activation (Figure3F) [2, 12]: 11% and 6.8% and -9.9%; % inhibition of NF-κB activation (Figure3F) [2, 13]: 11.1% and 26.6% and 2.8%; % inhibition of NF-κB activation (Figure3F) [2, 14]: 21.4% and 46% and -1.3%; % inhibition of NF-κB activation (Figure3F) [2, 15]: 38.5% and 60.8% and 40%; % inhibition of NF-κB activation (Figure3F) [2, 16]: 56.3% and 70.5% and 50.3%; % inhibition of NF-κB activation (Figure3F) [2, 17]: 64.4% and 84.7% and 71.9%; EC50 ([2]; inhibition of TNF-α-induced NF-κB activation, read-out: EC50): 6300 nM; solubility thermodynamic ([7]; single replicate): 16 µM (≈ 6.18 µg/mL)
O=C(Nc1ccc(I)cc1)N1CCC(n2c(=O)[nH]c3c(Br)cccc32)CC1 [TH5487, reference compound]	4.6 µL/min/mg														340 nM			4.16 ×10⁻⁶ cm/s	4.83 ×10⁻⁶ cm/s		% inhibition of NF-κB activation (Figure3F) [2, 10]: 18.9% and 16.9% and 37.3% and 20.7% and 19.4% and 19.3%; % inhibition of NF-κB activation (Figure3F) [2, 11]: 18.1% and 35.6% and 25.7% and 21.2% and 9.2%; % inhibition of NF-κB activation (Figure3F) [2, 12]: 12.4% and 13.4% and 36.2% and 34.5% and 36.5% and 30%; % inhibition of NF-κB activation (Figure3F) [2, 13]: 21% and 33.9% and 49.1% and 39.2% and 40.4% and 37.2%; % inhibition of NF-κB activation (Figure3F) [2, 14]: 58.6% and 64.7% and 55% and 52% and 44.1% and 44%; % inhibition of NF-κB activation (Figure3F) [2, 15]: 81.2% and 86.7% and 75.9% and 78.4% and 98.7% and 81.3%; % inhibition of NF-κB activation (Figure3F) [2, 16]: 101.6% and 99.3% (2×) and 95.7% and 105.1% and 123.3%; % inhibition of NF-κB activation (Figure3F) [2, 17]: 104.2% and 102% and 99.9% and 101.1% and 123.3% and 102.7%; solubility thermodynamic [7]: < 1 µM
Nc1nn(-c2ccc(CC(=O)Nc3noc4c3CCCC4)cc2)c2ccccc12 [compound 11]		10000 nM														21.3%	17.2%			20.29%	viability at 100 µM [6]: 20%
